The source made the active and inactive calls.
Experiments:
[1] = NIH-3T3 fibroblast cytotoxicity, dose response, cytotoxicity control, cell-based, fluorescence, Alamar Blue, secondary assay (AID 2327); type: functional;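 note: NIH-3T3 mouse fibroblasts cultured with fluconazole at 8 µg/mL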
[2] = inhibitors of SNCA 5'UTR-driven translation, confirmation, luminescence, H4 neuroglioblastoma cells, dose confirmation (AID 2454); type: functional, cell-based;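 note: H4 neuroglioblastoma cells carrying an alpha-synuclein 5'UTR luciferase reporter; potency for inhibition of the luciferase signal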
cells = type: functional, cell-based
[3] = target: ATP-dependent molecular chaperone HSP82 (Candida albicans (strain WO-1) (Yeast), UniProt C4YTQ8); assay: loss of DOC-induced GRE-beta-galactosidase reporter signal, dose response, Hsp90 inhibitor project, S. cerevisiae, luminescence (AID 2400); type: functional, cell-based;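 note: beta-galactosidase luminescence from glucocorticoid response element reporter as proxy for Hsp90 function; inhibitor potency where signal loss means Hsp90 inhibition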
Sequence of ATP-dependent molecular chaperone HSP82 (C4YTQ8 whole entry): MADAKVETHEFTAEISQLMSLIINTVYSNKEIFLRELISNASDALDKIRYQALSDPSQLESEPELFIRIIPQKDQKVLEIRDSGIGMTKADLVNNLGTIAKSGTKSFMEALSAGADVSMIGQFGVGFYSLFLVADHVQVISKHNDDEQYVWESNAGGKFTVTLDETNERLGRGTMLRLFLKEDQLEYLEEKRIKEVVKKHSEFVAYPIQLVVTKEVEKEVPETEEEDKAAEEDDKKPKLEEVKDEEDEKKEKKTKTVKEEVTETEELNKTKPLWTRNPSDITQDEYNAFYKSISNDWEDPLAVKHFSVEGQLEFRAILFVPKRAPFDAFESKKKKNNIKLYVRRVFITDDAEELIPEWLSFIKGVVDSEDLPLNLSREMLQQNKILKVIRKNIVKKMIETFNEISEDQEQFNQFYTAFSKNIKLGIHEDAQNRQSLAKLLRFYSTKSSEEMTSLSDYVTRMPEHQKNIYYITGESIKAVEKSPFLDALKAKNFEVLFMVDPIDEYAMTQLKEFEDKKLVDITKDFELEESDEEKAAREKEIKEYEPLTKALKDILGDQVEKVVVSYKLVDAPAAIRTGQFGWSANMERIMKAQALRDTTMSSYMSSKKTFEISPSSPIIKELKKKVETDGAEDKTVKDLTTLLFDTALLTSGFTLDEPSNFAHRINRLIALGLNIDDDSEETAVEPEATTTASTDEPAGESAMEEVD

[4] = C. albicans growth with fluconazole, confirmation, fluorescence, retest (AID 2467); type: functional, cell-based
[5] = target: Serine/threonine-protein phosphatase (Candida dubliniensis (strain CD36 / CBS 7987 / NCPF 3949 / NRRLY-17841) (Yeast), UniProt B9W6M3); assay: calcineurin pathway inhibitors in yeast reporter, dose response, S. cerevisiae, CDRE-lacZ, luminescence, secondary (AID 2388); type: functional, cell-based;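 note: yeast reporter cells carrying a calcineurin-responsive lacZ construct stimulated with calcium chloride; luminescent beta-galactosidase reporter signal in whole cells rather than isolated phosphatase activity; potency for inhibition where a drop in reporter signal means calcineurin blockade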
Sequence of Serine/threonine-protein phosphatase (Candida dubliniensis (strain CD36 / CBS 7987 / NCPF 3949 / NRRLY-17841) (Yeast), UniProt B9W6M3) (B9W6M3 whole entry, the tested form may be a part): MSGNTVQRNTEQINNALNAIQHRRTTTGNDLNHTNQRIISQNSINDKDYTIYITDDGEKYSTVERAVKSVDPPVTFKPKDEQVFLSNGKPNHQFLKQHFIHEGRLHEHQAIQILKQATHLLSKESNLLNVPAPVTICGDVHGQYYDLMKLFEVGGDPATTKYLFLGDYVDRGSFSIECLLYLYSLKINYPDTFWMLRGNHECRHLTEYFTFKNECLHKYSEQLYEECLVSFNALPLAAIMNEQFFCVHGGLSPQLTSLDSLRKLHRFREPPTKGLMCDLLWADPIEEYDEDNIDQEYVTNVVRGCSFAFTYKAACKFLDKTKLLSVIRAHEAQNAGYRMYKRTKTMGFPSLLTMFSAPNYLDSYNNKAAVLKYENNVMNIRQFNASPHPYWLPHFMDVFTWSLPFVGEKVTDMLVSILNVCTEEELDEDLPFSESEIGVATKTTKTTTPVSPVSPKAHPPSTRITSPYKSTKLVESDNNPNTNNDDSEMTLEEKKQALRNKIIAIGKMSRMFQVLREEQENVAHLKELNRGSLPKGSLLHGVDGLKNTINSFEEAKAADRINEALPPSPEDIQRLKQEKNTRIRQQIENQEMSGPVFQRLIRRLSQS

[6] = luciferase reporter signal reduction – luminescence, H4-C neuroglioblastoma cells, dose response (AID 2458); type: functional, cell-based;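 note: H4 neuroglioblastoma cells stably carrying a luciferase reporter gene fusion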
[7] = inhibitors of SNCA 5'UTR-driven reporter translation, confirmation, H4 neuroglioma cells, luminescence (AID 1988); type: functional, cell-based
[8] = target: Heat shock protein HSP 90-alpha (Homo sapiens, UniProt P07900); type: functional, organism-based
Leucine aminopeptidase = Leucine aminopeptidase (Plasmodium falciparum 3D7, UniProt Q8IL11); assay: P. falciparum M17LAP inhibitors, primary screen, biochemical, fluorogenic H-Leu-NHMec substrate, 1536-well (AID 1619); type: functional
Sequence of Leucine aminopeptidase (Q8IL11 whole entry): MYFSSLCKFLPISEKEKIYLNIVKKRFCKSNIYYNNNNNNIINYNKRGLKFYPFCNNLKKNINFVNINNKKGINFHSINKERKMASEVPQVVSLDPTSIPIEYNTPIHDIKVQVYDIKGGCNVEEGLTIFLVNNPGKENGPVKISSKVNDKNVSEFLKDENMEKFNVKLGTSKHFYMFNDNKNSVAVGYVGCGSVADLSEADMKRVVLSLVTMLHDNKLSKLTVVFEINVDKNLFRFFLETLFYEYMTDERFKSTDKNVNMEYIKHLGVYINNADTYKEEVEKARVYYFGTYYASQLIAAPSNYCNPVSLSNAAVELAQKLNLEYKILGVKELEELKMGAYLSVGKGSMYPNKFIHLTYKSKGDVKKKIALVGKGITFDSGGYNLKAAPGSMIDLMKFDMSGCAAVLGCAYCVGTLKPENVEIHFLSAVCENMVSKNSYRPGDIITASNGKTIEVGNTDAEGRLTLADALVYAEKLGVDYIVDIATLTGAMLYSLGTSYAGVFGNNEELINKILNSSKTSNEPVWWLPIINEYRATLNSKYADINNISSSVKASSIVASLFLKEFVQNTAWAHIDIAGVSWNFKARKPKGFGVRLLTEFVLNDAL

Aspartyl aminopeptidase = target: T1, Aspartyl aminopeptidase (Plasmodium falciparum 3D7, UniProt Q8I2J3); assay: Counterscreen for inhibitors of M1 and M17 aminopeptidases: QFRET-based biochemical high throughput dose response assay for inhibitors of the Plasmodium falciparum M18 Aspartyl Aminopeptidase (PFM18AAP). [Related PubChem assays: 1619 (Screening assay (M17LAP inhibitors).), 1445 (Screening assay (M1AAP inhibitors).)]
T1 sequence (Q8I2J3 whole entry): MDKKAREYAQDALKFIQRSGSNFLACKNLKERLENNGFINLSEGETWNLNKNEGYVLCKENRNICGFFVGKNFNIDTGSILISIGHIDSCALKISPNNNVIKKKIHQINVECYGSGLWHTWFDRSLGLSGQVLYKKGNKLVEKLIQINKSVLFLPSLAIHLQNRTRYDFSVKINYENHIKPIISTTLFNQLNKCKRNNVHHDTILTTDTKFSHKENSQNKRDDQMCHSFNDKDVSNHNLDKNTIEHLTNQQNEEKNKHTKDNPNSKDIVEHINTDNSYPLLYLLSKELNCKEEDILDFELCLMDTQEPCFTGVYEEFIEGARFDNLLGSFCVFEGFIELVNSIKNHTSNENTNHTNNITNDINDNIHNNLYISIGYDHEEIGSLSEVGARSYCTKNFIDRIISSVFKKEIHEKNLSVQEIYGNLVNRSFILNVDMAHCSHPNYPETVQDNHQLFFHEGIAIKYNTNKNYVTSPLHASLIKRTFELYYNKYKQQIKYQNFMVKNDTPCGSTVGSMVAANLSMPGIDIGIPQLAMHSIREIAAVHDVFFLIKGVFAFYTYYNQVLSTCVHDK

Procathepsin L = Procathepsin L (Homo sapiens, UniProt P07711); assay: cathepsin L inhibitors, dose response, counter-screen for M1/M17 aminopeptidase inhibitor project, biochemical, QFRET, 1536-well (AID 2214)
Sequence of Procathepsin L (P07711 whole entry): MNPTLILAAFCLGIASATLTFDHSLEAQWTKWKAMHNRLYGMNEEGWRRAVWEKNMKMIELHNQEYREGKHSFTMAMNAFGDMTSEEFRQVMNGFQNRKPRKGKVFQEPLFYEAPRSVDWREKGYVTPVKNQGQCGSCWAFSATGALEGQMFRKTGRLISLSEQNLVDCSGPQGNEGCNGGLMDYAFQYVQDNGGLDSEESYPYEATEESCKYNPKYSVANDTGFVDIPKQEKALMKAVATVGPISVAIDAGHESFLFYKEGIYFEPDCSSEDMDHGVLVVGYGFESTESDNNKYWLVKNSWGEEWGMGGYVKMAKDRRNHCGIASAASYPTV

[9] = target: Mothers against decapentaplegic homolog 3 (Homo sapiens, UniProt P84022); assay: Smad3 binding inhibitors, lysate ELISA, dose response, cell lysate, secondary confirmation, chemiluminescent ELISA, HEK293 lysate (AID 1058); type: functional
Sequence of Mothers against decapentaplegic homolog 3 (P84022 whole entry): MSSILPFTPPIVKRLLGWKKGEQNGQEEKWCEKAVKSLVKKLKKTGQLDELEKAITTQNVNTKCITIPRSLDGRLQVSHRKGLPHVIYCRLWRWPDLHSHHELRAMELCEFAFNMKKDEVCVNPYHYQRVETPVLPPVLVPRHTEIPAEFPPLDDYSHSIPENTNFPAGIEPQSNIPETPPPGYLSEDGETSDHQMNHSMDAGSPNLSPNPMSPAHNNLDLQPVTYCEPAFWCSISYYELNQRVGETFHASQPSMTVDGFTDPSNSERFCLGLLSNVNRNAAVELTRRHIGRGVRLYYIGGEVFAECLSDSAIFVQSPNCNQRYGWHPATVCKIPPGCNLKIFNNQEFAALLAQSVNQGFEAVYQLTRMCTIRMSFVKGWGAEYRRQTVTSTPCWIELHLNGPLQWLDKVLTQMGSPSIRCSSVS

[10] = Counterscreen for IDE inhibitors: Luminescence-based cell-based high throughput dose response assay to identify compounds that are cytotoxic to HEK cells. [Related pubchem assays: 434962 (Primary screen (IDE inhibitors in singlicate)), 449730 (Counterscreen (Cytotoxicity in triplicate)), 435028 (Confirmation (IDE inhibitors in triplicate)) …; type: functional; conditions: HEK293
Insulin-degrading enzyme = target: T2, Insulin-degrading enzyme (Homo sapiens, UniProt P14735); assay: Dose Response: Fluorescence polarization-based cell-based high throughput dose response assay for inhibitors of insulin-degrading enzyme (IDE). [Related pubchem assays: 434962 (Primary screen (IDE inhibitors in singlicate)), 449730 (Counterscreen (Cytotoxicity in triplicate)), 435028 (Confirmation (IDE inhibitors in triplicate)), 434984 (Summary …; type: functional
T2 sequence (P14735 whole entry): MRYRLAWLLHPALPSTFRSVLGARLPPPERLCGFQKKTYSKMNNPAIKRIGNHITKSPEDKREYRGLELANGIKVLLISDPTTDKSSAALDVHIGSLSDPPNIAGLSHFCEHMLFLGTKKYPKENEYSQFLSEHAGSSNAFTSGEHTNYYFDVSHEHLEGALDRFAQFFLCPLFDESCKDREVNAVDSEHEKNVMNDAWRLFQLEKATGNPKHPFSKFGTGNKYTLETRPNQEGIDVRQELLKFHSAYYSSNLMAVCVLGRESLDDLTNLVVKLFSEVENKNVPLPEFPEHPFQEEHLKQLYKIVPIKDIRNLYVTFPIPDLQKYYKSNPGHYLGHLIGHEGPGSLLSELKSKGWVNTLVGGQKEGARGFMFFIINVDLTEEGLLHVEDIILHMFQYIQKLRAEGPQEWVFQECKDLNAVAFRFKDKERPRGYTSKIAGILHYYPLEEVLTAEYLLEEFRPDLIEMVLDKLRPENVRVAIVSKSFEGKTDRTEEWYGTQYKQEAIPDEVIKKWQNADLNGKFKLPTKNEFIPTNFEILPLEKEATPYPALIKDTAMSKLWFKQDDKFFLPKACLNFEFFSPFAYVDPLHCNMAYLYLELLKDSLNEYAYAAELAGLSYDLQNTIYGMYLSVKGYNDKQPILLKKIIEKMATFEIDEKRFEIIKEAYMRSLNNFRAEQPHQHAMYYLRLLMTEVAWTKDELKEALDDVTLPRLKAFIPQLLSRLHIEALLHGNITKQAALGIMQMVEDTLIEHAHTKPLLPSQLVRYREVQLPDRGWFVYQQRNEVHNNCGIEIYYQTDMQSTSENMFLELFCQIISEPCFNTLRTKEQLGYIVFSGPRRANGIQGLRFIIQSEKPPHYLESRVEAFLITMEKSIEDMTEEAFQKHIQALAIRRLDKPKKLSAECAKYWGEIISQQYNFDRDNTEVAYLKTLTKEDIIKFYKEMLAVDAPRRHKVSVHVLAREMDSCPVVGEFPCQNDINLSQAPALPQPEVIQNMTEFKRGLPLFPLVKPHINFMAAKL

[11] = enhancers of respiration in Yfh1-depleted yeast, dose response, Friedreich's ataxia, plus single-dose screen (AID 1465); type: functional;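 note: yeast depleted of Yfh1p frataxin homolog grown on glycerol needing respiration; WST-1 tetrazolium dye reduction as measure of cellular dehydrogenase metabolic activity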
[12] = target: Sphingosine 1-phosphate receptor 3 (Homo sapiens, UniProt Q99500); assay: Dose response cell-based high throughput screening assay for antagonists of the Sphingosine 1-Phosphate Receptor 3 (S1P3). [Related pubchem assays: 1429, 485 ]; type: functional
Sequence of Sphingosine 1-phosphate receptor 3 (Q99500 whole entry): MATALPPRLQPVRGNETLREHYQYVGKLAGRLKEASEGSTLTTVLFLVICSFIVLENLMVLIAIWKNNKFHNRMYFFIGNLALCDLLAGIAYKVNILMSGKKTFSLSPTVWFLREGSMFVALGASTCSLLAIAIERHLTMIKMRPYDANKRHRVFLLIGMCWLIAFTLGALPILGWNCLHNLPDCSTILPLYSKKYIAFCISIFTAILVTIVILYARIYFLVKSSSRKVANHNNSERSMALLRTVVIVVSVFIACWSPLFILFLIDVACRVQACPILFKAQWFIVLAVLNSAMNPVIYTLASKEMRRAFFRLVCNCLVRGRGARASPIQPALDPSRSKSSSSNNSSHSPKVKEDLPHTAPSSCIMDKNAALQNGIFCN

[13] = target: 5-hydroxytryptamine receptor 1E (Homo sapiens, UniProt P28566); assay: Counterscreen assay for S1P3 antagonists: Dose response cell-based high throughput screening assay to identify antagonists of the 5-Hydroxytryptamine Receptor Subtype 1E (5HT1E). [Related pubchem assays: 1429, 485 ]; type: functional
Sequence of 5-hydroxytryptamine receptor 1E (P28566 whole entry): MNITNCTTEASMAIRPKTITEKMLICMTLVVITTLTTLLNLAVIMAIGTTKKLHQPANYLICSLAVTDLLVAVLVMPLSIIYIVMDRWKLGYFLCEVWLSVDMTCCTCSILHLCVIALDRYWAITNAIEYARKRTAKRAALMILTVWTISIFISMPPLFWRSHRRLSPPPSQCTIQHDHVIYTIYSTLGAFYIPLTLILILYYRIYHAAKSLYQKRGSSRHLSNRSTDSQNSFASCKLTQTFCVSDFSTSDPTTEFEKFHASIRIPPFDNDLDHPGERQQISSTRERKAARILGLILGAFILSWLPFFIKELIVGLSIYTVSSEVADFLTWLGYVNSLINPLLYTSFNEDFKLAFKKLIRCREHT

[14] = target: T3, Serine/threonine-protein phosphatase (Homo sapiens, UniProt Q9BPW0); assay: Counterscreen for inhibitors of PP1: fluorescence-based biochemical high throughput dose response assay to identify inhibitors of Protein Phosphatase 5 (PP5). [Related pubchem assays: 2034 (Summary (PP5 inhibitors)), 1987 (PP5 inhibitors in singlate), 2235 (PP1 inhibitors in singlate)]
T3 sequence (Q9BPW0 whole entry): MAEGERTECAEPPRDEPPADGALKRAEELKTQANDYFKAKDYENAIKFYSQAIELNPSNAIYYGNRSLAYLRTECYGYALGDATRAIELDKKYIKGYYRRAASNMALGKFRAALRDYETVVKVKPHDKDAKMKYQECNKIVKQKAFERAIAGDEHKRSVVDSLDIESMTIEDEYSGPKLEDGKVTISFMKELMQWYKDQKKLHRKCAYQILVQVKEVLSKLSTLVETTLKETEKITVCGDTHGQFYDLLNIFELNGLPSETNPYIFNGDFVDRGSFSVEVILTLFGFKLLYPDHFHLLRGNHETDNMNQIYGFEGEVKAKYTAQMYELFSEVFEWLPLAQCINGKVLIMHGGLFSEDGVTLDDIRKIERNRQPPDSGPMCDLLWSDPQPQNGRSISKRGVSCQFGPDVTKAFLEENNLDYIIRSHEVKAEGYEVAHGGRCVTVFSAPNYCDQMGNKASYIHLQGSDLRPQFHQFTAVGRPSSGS

[15] = target: T4, Heat shock factor protein 1 (Mus musculus, UniProt P38532); assay: HSF1 potentiators in luciferase reporter cells, confirmation, cell-based, NIH3T3, luminescence, dose retest (AID 435004); type: functional;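 note: stress induced by proteasome inhibitor MG132 added 30 min after compound; luciferase reporter driven by HSF1 response element in NIH3T3 cells; actives raise luminescence as potentiators of the MG132 stress response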
T4 sequence (P38532 whole entry): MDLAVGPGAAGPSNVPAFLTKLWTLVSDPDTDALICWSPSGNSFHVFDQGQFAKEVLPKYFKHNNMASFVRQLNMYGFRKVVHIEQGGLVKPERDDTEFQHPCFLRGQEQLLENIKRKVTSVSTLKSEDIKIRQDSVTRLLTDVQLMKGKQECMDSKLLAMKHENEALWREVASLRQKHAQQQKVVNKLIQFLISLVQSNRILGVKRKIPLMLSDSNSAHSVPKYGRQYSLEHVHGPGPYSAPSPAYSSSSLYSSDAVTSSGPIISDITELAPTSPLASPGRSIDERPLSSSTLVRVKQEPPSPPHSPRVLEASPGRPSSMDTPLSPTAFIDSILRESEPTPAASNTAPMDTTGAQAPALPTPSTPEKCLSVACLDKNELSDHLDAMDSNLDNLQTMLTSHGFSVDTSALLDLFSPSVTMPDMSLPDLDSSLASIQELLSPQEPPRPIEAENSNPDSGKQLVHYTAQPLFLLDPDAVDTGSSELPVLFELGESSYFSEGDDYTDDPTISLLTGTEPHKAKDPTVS

[16] = target: Serine/threonine-protein phosphatase PP1-alpha catalytic subunit (Homo sapiens, UniProt P62136); assay: PP1 phosphatase inhibitors, dose response, biochemical, fluorescence (AID 2403);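 note: phosphatase turnover of OMFP into fluorescent 3-O-methylfluorescein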
Sequence of Serine/threonine-protein phosphatase PP1-alpha catalytic subunit (P62136 whole entry): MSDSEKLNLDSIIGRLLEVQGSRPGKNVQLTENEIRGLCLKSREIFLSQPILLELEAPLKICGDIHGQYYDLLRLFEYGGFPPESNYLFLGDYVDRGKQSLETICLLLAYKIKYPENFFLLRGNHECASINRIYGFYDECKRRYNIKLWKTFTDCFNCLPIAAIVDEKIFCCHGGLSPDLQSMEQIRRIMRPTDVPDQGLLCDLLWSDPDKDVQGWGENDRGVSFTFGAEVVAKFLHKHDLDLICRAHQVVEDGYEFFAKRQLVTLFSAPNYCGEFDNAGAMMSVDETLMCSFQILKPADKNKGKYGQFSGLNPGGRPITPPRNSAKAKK

[17] = target: T5, Alkaline phosphatase, tissue-nonspecific isozyme (Homo sapiens, UniProt P05186)
T5 sequence (P05186 whole entry): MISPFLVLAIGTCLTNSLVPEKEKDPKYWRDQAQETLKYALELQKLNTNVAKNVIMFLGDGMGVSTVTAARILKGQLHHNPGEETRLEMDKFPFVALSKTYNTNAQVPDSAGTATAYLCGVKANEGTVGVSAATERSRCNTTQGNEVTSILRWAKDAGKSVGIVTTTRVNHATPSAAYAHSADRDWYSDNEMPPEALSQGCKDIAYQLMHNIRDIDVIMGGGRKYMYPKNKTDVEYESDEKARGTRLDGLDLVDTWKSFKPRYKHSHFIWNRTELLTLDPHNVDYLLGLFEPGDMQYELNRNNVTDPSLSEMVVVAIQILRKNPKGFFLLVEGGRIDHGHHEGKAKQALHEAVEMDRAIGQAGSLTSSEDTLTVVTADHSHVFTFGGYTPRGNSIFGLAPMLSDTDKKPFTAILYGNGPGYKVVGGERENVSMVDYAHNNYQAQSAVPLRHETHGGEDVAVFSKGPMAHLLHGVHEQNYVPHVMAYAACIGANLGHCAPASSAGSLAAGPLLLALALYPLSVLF

Oc1c(C(Nc2nccs2)c2ccc(C(F)(F)F)cc2)ccc2cccnc12 (configuration not stated)
EC50 [1]: 11.2 µM (active) | EC50 [2]: > 12 µM (not active) | EC50 (cells): 1.04 µM (active) | EC50 [3]: > 160 µM (inactive) | EC50 [4]: 1.01 µM (active) | EC50 [5]: > 180 µM (inactive) | EC50 [6]: 8.36 µM (active) | EC50 [7]: < 0.1 µM (active) | AC50 [8]: 3.69 µM (active)

CCN(CC)c1ccc(NC(=O)CSc2nc(C)cc(O)n2)cc1
IC50 (Leucine aminopeptidase): 3.06 µM (active) | IC50 (Aspartyl aminopeptidase): > 73.5 µM (not active) | IC50 (Procathepsin L): > 59.6 µM (not active)

COc1cc(C(c2cc3c(cc2O)OCO3)N2CCCCC2)cc(OC)c1OC (configuration not stated)
IC50 [9]: 12.5 µM (not active)

O=C1NC(=O)N(c2ccc3c(c2)OCO3)C(=O)/C1=C/c1ccc(N2CCCC2)o1
IC50 [10]: > 55.7 µM (not active) | IC50 (Insulin-degrading enzyme): 20.7 µM (not active) | EC50 [11]: > 100 µM (active)

O=C(Nc1ccc(Br)cc1)C(c1ccccc1)c1ccccc1
IC50 [12]: 1.33 µM (active) | IC50 [13]: > 50 µM (not active)

O=C(O)c1cc(-c2ccc(Cl)c(Cl)c2)n(-c2ccccc2)n1
IC50 [14]: > 67 µM (not active) | EC50 [15]: > 260 µM (inactive) | IC50 [16]: 5.82 µM (active)

Cc1ccc(C(O)(C(=O)NNC(=O)CN2CCN(C)CC2)c2ccc(C)cc2)cc1
EC50 [17]: 64.1 µM (not active)
